Measurements as given in US4036962A, “6,7-Methylenedioxy-1-(2,2,2-trifluoroethyl)-4(1H)-quinolone-3-carboxylic acid and its salts and esters” (E. I. Du Pont de Nemours and Co., priority 1975, dated 1977).
Where two headings read alike, the source gives them in different places.

Assays:
Escherichia coli = assay: In vivo antibacterial activity in mice infected with Escherichia coli (intraperitoneal), compound given orally at infection and 4 hours later; mortality through third day; details: for ED50: Escherichia coli, po, 72 h
Experimental: Use of the ester of this invention as antibacterial agents is exemplified by data for 6,7-methylene-1-(2,2,2-trifluoroethyl)-4(1H)-quinolone-3-carboxylic acid, trimethylacetoxymethyl ester. In vivo determinations of antibacterial activity are carried out in mice.
The test bacterium is grown into bacteriological medium from frozen stock cultures. The culture is centrifuged, resuspended, centrifuged again, resuspended in fresh bacteriological medium, and diluted to the proper infective concentration. Mice are infected by intraperitoneal or intravenous injection of 0.2 ml. of the diluted bacterial culture.
Test compounds are dissolved or suspended in water containing 0.01% Tween 80 by either sonication or bead-milling to break up the materials in order to dissolve them or provide a fine suspension for the insoluble compounds. Concentrations are prepared so that when 0.2 ml. of the solution or suspension is administered to mice orally by intubation, the correct amount of compound in mg/kg of mouse is provided.
The mice are dosed with test compound orally by intubation at appropriate intervals following infection and mortality is recorded through the third day. The effective dose 50 (ED50) and lethal dose for 50% kill (LD50) are calculated by the Reed-Muench method.
In Table I are the results of a test in mice infected with Escherichia coli by the intraperitoneal route. Compound was administered orally by intubation immediately following infection and again 4 hours after infection.
^1 Animals dosed orally at the time of infection and again four hours
^2 Determined by agar plate counts and stock culture titration, the
dose is the LD50 multiplied by the number preceding it.

[1] = Biological activity of stable versus metastable crystalline form (test not specified); assay type: in vivo; details: probably due to poor absorption
[2] = 18 LD50 E. coli infection, 10 mg/kg PO, at infection and again 4 hours later
[3] = 18 LD50 E. coli infection, 30 mg/kg PO, at infection and again 4 hours later
[4] = 18 LD50 E. coli infection, 100 mg/kg PO, at infection and again 4 hours later
[5] = 135 LD50 E. coli infection, 10 mg/kg PO, at infection and again 4 hours later
[6] = 135 LD50 E. coli infection, 30 mg/kg PO, at infection and again 4 hours later
[7] = 135 LD50 E. coli infection, 100 mg/kg PO, at infection and again 4 hours later
[8] = 4 LD50 E. coli infected mice, oral, read-out: ED50
[9] = 2 LD50 E. coli infected mice, oral, read-out: ED50

CC(C)(C)C(=O)OCOC(=O)c1cn(CC(F)(F)F)c2cc3c(cc2c1=O)OCO3 [Example 6, 6,7-Methylenedioxy-1-(2,2,2-trifluoroethyl)-4(1H)-quinolone-3-carboxylic acid, trimethylacetoxymethyl ester]
% Survivors (Escherichia coli; [2]): 33% | % Survivors (Escherichia coli; [3]): 50% | % Survivors (Escherichia coli; [4]): 75% | % Survivors (Escherichia coli; [5]): 17% | % Survivors (Escherichia coli; [6]): 8% | % Survivors (Escherichia coli; [7]): 50% | ED50 (Escherichia coli; 18 LD50 E. coli infection, PO, at infection and again 4 hours later, Reed-Muench, read-out: ED50): 24 mg/kg | ED50 (Escherichia coli; 135 LD50 E. coli infection, PO, at infection and again 4 hours later, Reed-Muench, read-out: ED50): 77 mg/kg | antibacterial activity compared with oxolinic acid (Escherichia coli; systemic Escherichia coli infection of mice, two infecting levels of bacteria): significantly greater antibacterial activity than does oxolinic acid

CC(C)C(=O)OCOC(=O)c1cn(CC(F)(F)F)c2cc3c(cc2c1=O)OCO3 [Example 6A, 6,7-methylenedixoy-1-(2,2,2-trifluoroethyl)-4(1H)-quinolone-3-carboxylic acid, iso-butyryloxymethyl ester]
ED50 (Escherichia coli; [8]): 73 mg/kg

CCC(C)(C)C(=O)OCOC(=O)c1cn(CC(F)(F)F)c2cc3c(cc2c1=O)OCO3 [Example 6B, 6,7-methylenedioxy-1-(2,2,2-trifluoroethyl)-4(1H)-quinolone-3-carboxylic acid, 2,2-dimethyl-n-butyryloxymethyl ester]
ED50 (Escherichia coli; [8]): 40 mg/kg

CCCCCC(=O)OCOC(=O)c1cn(CC(F)(F)F)c2cc3c(cc2c1=O)OCO3 [Example 6C, 6,7-methylenedioxy-1-(2,2,2-trifluoroethyl)-4(1H)-quinolone-3-carboxylic acid, n-hexanoyloxymethyl ester]
ED50 (Escherichia coli; [8]): 25 mg/kg

CCCCCCCCCC(=O)OCOC(=O)c1cn(CC(F)(F)F)c2cc3c(cc2c1=O)OCO3 [Example 6D, 6,7-methylenedioxy-1-(2,2,2-trifluoroethyl)-4(1H)-quinolone-3-carboxylic acid, n-decanoyloxymethyl ester]
ED50 (Escherichia coli; [9]): 19 mg/kg

O=C(OCOC(=O)C1CCCCC1)c1cn(CC(F)(F)F)c2cc3c(cc2c1=O)OCO3 [Example 6E, 6,7-methylenedioxy-1-(2,2,2-trifluoroethyl)-4(1H)-quinolone-3-carboxylic acid, cyclohexanecarbonyloxymethyl ester]
ED50 (Escherichia coli; [9]): 29 mg/kg

O=C(OCOC(=O)c1cn(CC(F)(F)F)c2cc3c(cc2c1=O)OCO3)c1ccccc1 [Example 6F, 6,7-methylenedioxy-1-(2,2,2-trifluoroethyl)-4(1H)-quinolone-3-carboxylic acid, benzoyloxymethyl ester]
ED50 (Escherichia coli; [8]): 34 mg/kg

CCn1cc(C(=O)O)c(=O)c2cc3c(cc21)OCO3 [Oxolinic Acid, reference compound]
% Survivors (Escherichia coli; [2]): 8% | % Survivors (Escherichia coli; [3]): 33% | % Survivors (Escherichia coli; [4]): 83% | % Survivors (Escherichia coli; [5]): 17% | % Survivors (Escherichia coli; [6]): 17% | % Survivors (Escherichia coli; [7]): 25% | ED50 (Escherichia coli; 18 LD50 E. coli infection, at infection and again 4 hours later, Reed-Muench): 45 mg/kg | ED50 (Escherichia coli; 135 LD50 E. coli infection, at infection and again 4 hours later, Reed-Muench): > 100 mg/kg

CC(C)(C)C(=O)OCOC(=O)c1cn(CC(F)(F)F)c2cc3c(cc2c1=O)OCO3 [stable form, 6,7-Methylenedioxy-1-(2,2,2-trifluoroethyl)-4(1H)-quinolone-3-carboxylic acid, trimethylacetoxymethyl ester]
biological activity of stable form compared with meta-stable form [1]: less active than the meta-stable
